Measurements from patent US20070071681A1, “Apparatus and method for computer modeling type 1 diabetes” (Entelos, Inc., priority 2005, published 2007).
Like-named read-outs stand apart in the source and are kept apart here.

Key:
[1] = test system: average virtual NOD mouse; assay: Simulation of therapy protocols in the average virtual NOD mouse (computer model of type 1 diabetes); settings: expectation from published data
Description: One application of a NOD mouse type 1 diabetes model is to improve understanding of type 1 diabetes pathogenesis in the NOD mouse. Model development therefore focused on islet β cell autoimmunity and tolerance, as well as related mechanisms and interventions. To provide for general immunologic function and not only progression to diabetes, the development effort included representation of several NOD mouse phenotypes. The first phenotype was an average diabetic virtual mouse. […] Typically, a simulation of the average virtual mouse concludes shortly after diabetes diagnosis, which is consistent with post-diabetic sacrifice of NOD mice in the laboratory. […] Additional virtual mice, each with different clinical behaviors and/or underlying pathophysiologies, have also been generated. Similarly, development of modals of type 1 diabetes in other mammals, such as humans, can include the development of various virtual patients representing normal animals or animals having varying degrees of severity or progression of type 1 diabetes.
Because diabetes is typically assessed by measuring blood or urinary glucose, blood glucose levels were represented in the model's clinical read-out. Hyperglycemia (a diabetes indicator) was defined as a glucose level in excess of a commonly used standard (e.g., 200, 250, 300, 350 mg/dl). Glucose control was regulated based on a mathematical relationship describing interactions between blood insulin and glucose concentrations.
These include (i) dynamics of diabetes onset, (ii) dynamics of pancreatic lymph node (PLN) lymphocyte activation and expansion, and (iii) dynamics of islet infiltrate.
Numerous interventions have been tested in the NOD mouse. A major purpose of implementing selected interventions is to provide constraints for the virtual mouse, where constraints are defined as additional behavioral criteria that the virtual mouse should reproduce in a manner substantially consistent with published data. […]

[2] = test system: NOD mouse; settings: cited from earlier work; for Protection in the NOD mouse: protective therapeutic interventions suggested to depend on NK cell activities; for Protection from diabetes: pre-diabetic NOD mice
[3] = test system: BB rats; settings: cited from earlier work
[4] = test system: recent onset diabetic patients; settings: cited from earlier work; for Therapeutic response: insulin tolerization

Exendin-4: exendin-4; enhances glucose-dependent insulin secretion
Expected virtual mouse outcome ([1]; Exendin-4, Ogawa 2004 protocol): No remission
Incidence ([2]; Exendin-4, Ogawa 2004, 7-17 days after diagnosis of diabetes, 12 nmol/kg for 4 consec. days twice): No remission

CN(C(=O)c1c(O)c2ccccc2n(C)c1=O)c1ccccc1 [linomide]
Protection in the NOD mouse [2]: protection

NC(=O)c1cccnc1 [nicotinamide]
Protection from diabetes [3]: not
Protection from diabetes [2]: protection

hOKT3γ1 (Ala-Ala): modified, dimeric non-FcR binding anti CD3 antibody used in human clinical trials
Human clinical trial results ([4]; recent onset diabetic patients, Herold 2002): promising

Oral insulin: orally administered (porcine) insulin for induction of oral tolerance
Expected virtual mouse outcome ([1]; Oral insulin, Homann 1999 (1 mg), at 45 weeks): No diabetes at 45
Expected virtual mouse outcome ([1]; Oral insulin, Zhang 1991 (1 mg), at 52 weeks): No diabetes at 52 weeks
Protection from diabetes [3]: not
Incidence ([2]; Oral insulin, Homann 1999 (1 mg), Rx 5-45 weeks, at 45 weeks, vs 63% control): 26% treated vs.
Incidence ([2]; Oral insulin, Zhang 1991 (0.1 mg), Rx 5-52 weeks, at 52 weeks, vs 49% control): 44% treated vs.
Incidence ([2]; Oral insulin, Zhang 1991 (1 mg), Rx 5-52 weeks, at 52 weeks, vs 49% control): 26% treated vs.
Protection against diabetes ([2]; oral administration of insulin, induction of oral tolerance): protect against diabetes
Protection from diabetes [2]: protection

poly(I:C)
Protection in the NOD mouse [2]: protective

insulin: insulin tolerization therapy tested in human clinical trials
Therapeutic response ([4]; general clinical trial population): responded poorly
Therapeutic response ([4]; patients characterized by high insulin autoantibody titers): better therapeutic responses

IFN-α
Protection in the NOD mouse [2]: protective

Exogenous TGF-β: exogenous TGF-β delivered as 200 μg of pCMV-TGF-β1
Incidence ([2]; Exogenous TGF-β, Piccirillo 1998, 9-32 wks, 200 μg of pCMV-TGF-β1 every 2 wks, at 32 wks, vs 100% control): 42% vs. 100% control at 32 wks
Insulitis ([2]; Exogenous TGF-β, Piccirillo 1998): Reduced severity of insulitis
Other observations ([2]; Exogenous TGF-β, Piccirillo 1998, islet mRNA levels): Reduced mRNA levels of islet IL-12 & IFN-γ
